In patent publication US7811352B2, “Fertilizer compositions and methods of using” (priority 2005, dated 2010):

Legend:
Format in all cases: in vivo
[1] = test system: Moonlight Kentucky bluegrass; test: Blade density rating, Kentucky bluegrass lawn (Example 17); conditions: Day 70
Description: In this Example, the effect of a fertilizer comprising lysine on cool season lawn variety turfgrass growth was examined. The effects of lysine (HCl) and LIQUID LYSINE on a common variety of law turfgrass (Moonlight Kentucky bluegrass) were compared with those of urea, Milorganite and a blended fertilizer (a blend of methylene urea and urea in an approximately 1:1 ratio).
Fifteen fertilizer treatments comprising three concentrations of each fertilizer composition (Milorganite N—P—K, 6-2-0), urea (N—P—K, 46-0-0), a blended fertilizer, LIQUID LYSINE (N—P—K, 10-2-1), and lysine (HCl) (N—P—K, 15-2-1)) were prepared and applied to 3 replications of newly established “Moonlight” variety Kentucky bluegrass lawn turfgrass. The urea, lysine (HCl), and LIQUID LYSINE were dissolved/suspended in 1.5 gal water prior to application. […], 1.0 lb N/1000 ft^2/year and 3.0 lb N/1000 ft^2/year, The urea, LIQUID LYSINE and lysine (HCl) were applied as foliar liquids, while Milorganite and the blended fertilizer were applied as granular fertilizers. Plot size was 4 ft×8 ft laid out in a replicated complete block design. Plots were mowed at 2.0 inches before fertilizer application and mowed two times per week to 2.0 inch height. Grass clippings were not removed from the plots and no supplemental cultural maintenance or pest management was applied. Irrigation (0.15 inch) was applied following application and thereafter only when necessary to insure survival of the turf. Plots were rated for turfgrass quality (scale of 1-9 where 9=dark green turf, 1=dead/brown turf, and 6=minimally acceptable turf) and phytotoxic injury (scale of 0-9 where 9=significant foliar injury and 2=minimally objectionable foliar injury) throughout the study period. Quality was measured prior to application (day 0) and day 37, day 70 and day 95 after application. Injury was measured on day 37 and day 70 after application. In addition, blade density of the grass was measured on day 70 after application (scale of 1-9, where 9=very dense turf, 1=low density turf). All data was subject to statistical analysis and significant means were determined.

[2] = test system: Floratam St. Augustine grass; test: Phytotoxicity rating, St. Augustine grass (Example 9); conditions: for Phytotoxicity - St. Augustine Grass: scale 0-5, 5=worst
Description: In this Example, the effect of a fertilizer comprising lysine on warn season turfgrass growth was examined. The effects of lysine (HCl) and LIQUID LYSINE on a common type of lawn quality turfgrass (St. Augustine grass) were compared with those of urea and Milorganite. St. Augustine grass is a commonly utilized turfgrass throughout the warm, tropical zones for lawn turf and is a commercially significant species.
Twelve fertilizer treatments comprising three concentrations of each fertilizer composition (Milorganite (N—P—K, 6-2-0), urea N—P—K, 46-0-0), LIQUID LYSINE (N—P—K, 10-2-1), and lysine (HCl) (N—P—K, 15-2-1)) were prepared and applied to 4 replications of Floratam St. Augustine grass. The lysine (HCl) was dissolved in water prior to application. Each fertilizer treatment was applied in concentrations of 0.5 lb N/1000 ft^2/month, 1.0 lb N/1000 ft^2/month and 3.0 lb N/1000 ft^2/month. The urea, LIQUID LYSINE and lysine (HCl) were applied as foliar liquids, while Milorganite was applied as a granular fertilizer. Plot size was 1 m×2 m set up as a randomized complete block. Plots were mowed at 3.0 inches before fertilizer application. Irrigation (0.15 inch) was applied following application. Plots were rated for turfgrass quality and color (scale of 1-10 where 10=dark green turf, 1=dead/brown turf; and 6=minimally acceptable turf) and phytotoxicity (scale of 0-5, where 5=worst, and 2=minimally objectionable) throughout the study period. Quality, color, and phytotoxicity were measured on 2 days before application (day −2) and day 2, day 5, day 15 and day 21 after application. All data was subject to statistical analysis and significant means were determined. Average turfgrass quality ratings for the treatments are presented in Table 6 and the quality results for application rates of 1.0 lb N/1000 ft^2/month are graphically presented in FIG. 2.

[3] = test system: Pennlinks creeping bentgrass for greens; test: Phytotoxic injury rating, greens creeping bentgrass (Example 16)
Description: In this Example, the effect of a fertilizer comprising lysine on cool season greens quality turfgrass growth was examined. The effects of lysine (HCl) and LIQUID LYSINE on a common type of golf course greens quality turfgrass (Pennlinks creeping bentgrass for greens, mown at 0.1875 in height of cut) were compared with those of urea, Milorganite and a blended fertilizer (a blend of methylene urea and urea in an approximately 1:1 ratio).
Fifteen fertilizer treatments comprising three concentrations of each fertilizer composition (Milorganite (N—P—K, 6-2-0), urea (N—P—K, 46-0-0), a blended fertilizer, LIQUID LYSINE N—P—K, 10-2-1), and lysine (HCl) (N—P—K, 15-2-1)) were prepared and applied to 3 replications of well established Pennlinks creeping bentgrass mown to 0.1875 in height cut. The urea, lysine (HCl), and LIQUID LYSINE were dissolved/suspended in 1.5 gal water prior to application. Each fertilizer treatment was applied in concentrations of 0.125 lb N/1000 ft^2/week, 0.250 lb N/1000 ft^2/week and 0.750 lb N/1000 ft^2/week. The urea, LIQUID LYSINE and lysine (HCl) were applied as foliar liquids, while Milorganite and blended fertilizer were applied as granular fertilizers. Plot size was 4 ft×8 ft laid out in a replicated complete block design. Plots were mowed at 0.1875 inches height before fertilizer application and mowed five times per week to 0.1875 inch height. Grass clippings were removed from the plots after each mowing. Irrigation (0.15 inch) was applied following application and daily thereafter. Plots were rated for turfgrass quality (scale of 1-9 where 9=dark green turf, 1=dead/brown turf, and 6=minimally acceptable turf) and phytotoxic injury (scale of 0-9 where 9=significant foliar injury and 2=minimally objectionable foliar injury) throughout the study period. Quality was measured prior to application (day 0) and day 37, day 70 and day 95 after application. Injury was measured on day 37, day 70 and day 95 after application. Ai) additional set of turfgrass plots were fertilized with three treatments of a soy concentrate fertilizer with the same application rates and methods. The quality and phytotoxic injury of the soy concentrate fertilizer plots were measured on day 95. All data was subject to statistical analysis and significant means were determined.

[4] = Weekly Rate 0.5 lbs N/1000 ft^2
[5] = Weekly Rate 1.0 lbs N/1000 ft^2
[6] = Weekly Rate 3.0 lbs N/1000 ft^2
[7] = Monthly Rate 0.5 lbs N/1000 ft^2, Day 2
[8] = Monthly Rate 0.5 lbs N/1000 ft^2, Day 5
[9] = Monthly Rate 0.5 lbs N/1000 ft^2, Day 15
[10] = Monthly Rate 0.5 lbs N/1000 ft^2, Day 21
[11] = Monthly Rate 0.5 lbs N/1000 ft^2, Day −2 (before application)
[12] = Monthly Rate 1.0 lbs N/1000 ft^2, Day 2
[13] = Monthly Rate 1.0 lbs N/1000 ft^2, Day 5
[14] = Monthly Rate 1.0 lbs N/1000 ft^2, Day 15
[15] = Monthly Rate 1.0 lbs N/1000 ft^2, Day 21
[16] = Monthly Rate 1.0 lbs N/1000 ft^2, Day −2 (before application)
[17] = Monthly Rate 3.0 lbs N/1000 ft^2, Day 2
[18] = Monthly Rate 3.0 lbs N/1000 ft^2, Day 5
[19] = Monthly Rate 3.0 lbs N/1000 ft^2, Day 15
[20] = Monthly Rate 3.0 lbs N/1000 ft^2, Day 21
[21] = Monthly Rate 3.0 lbs N/1000 ft^2, Day −2 (before application)
[22] = Weekly Rate 0.125 lbs N/1000 ft^2, Day 37
[23] = Weekly Rate 0.125 lbs N/1000 ft^2, Day 70
[24] = Weekly Rate 0.125 lbs N/1000 ft^2, Day 95
[25] = Weekly Rate 0.25 lbs N/1000 ft^2, Day 37
[26] = Weekly Rate 0.25 lbs N/1000 ft^2, Day 70
[27] = Weekly Rate 0.25 lbs N/1000 ft^2, Day 95
[28] = Weekly Rate 0.75 lbs N/1000 ft^2, Day 37
[29] = Weekly Rate 0.75 lbs N/1000 ft^2, Day 70
[30] = Weekly Rate 0.75 lbs N/1000 ft^2, Day 95

SMILES	Density Rating - Kentucky Bluegrass [1, 4]	Density Rating - Kentucky Bluegrass [1, 5]	Density Rating - Kentucky Bluegrass [1, 6]	Phytotoxicity - St. Augustine Grass [2, 7]	Phytotoxicity - St. Augustine Grass [2, 8]	Phytotoxicity - St. Augustine Grass [2, 9]	Phytotoxicity - St. Augustine Grass [2, 10]	Phytotoxicity - St. Augustine Grass [2, 11]	Phytotoxicity - St. Augustine Grass [2, 12]	Phytotoxicity - St. Augustine Grass [2, 13]	Phytotoxicity - St. Augustine Grass [2, 14]	Phytotoxicity - St. Augustine Grass [2, 15]	Phytotoxicity - St. Augustine Grass [2, 16]	Phytotoxicity - St. Augustine Grass [2, 17]	Phytotoxicity - St. Augustine Grass [2, 18]	Phytotoxicity - St. Augustine Grass [2, 19]	Phytotoxicity - St. Augustine Grass [2, 20]	Phytotoxicity - St. Augustine Grass [2, 21]	Injury Rating - Greens Bentgrass [3, 22]	Injury Rating - Greens Bentgrass [3, 23]	also measured
NC(N)=O [Urea, urea, reference compound]	5.0de	5.3cde	7.0ab	0.6bc	1.6bc	0	0	0	1.5b	2.0ab	0	0	0	2.8a	3.0a	0	0	0	1.0b	1.3	phytotoxicity ([2]; 1.0 lb N/1000 ft^2 and 3.0 lb N/1000 ft^2 application rate): some phytotoxicity; Injury Rating - Greens Bentgrass [3, 24]: 3.0ab; Injury Rating - Greens Bentgrass [3, 25]: 1.0b; Injury Rating - Greens Bentgrass [3, 26]: 1.0; Injury Rating - Greens Bentgrass [3, 27]: 2.0ab; Injury Rating - Greens Bentgrass [3, 28]: 1.0b; Injury Rating - Greens Bentgrass [3, 29]: 1.0; Injury Rating - Greens Bentgrass [3, 30]: 2.7ab
Cl.NCCCC[C@H](N)C(=O)O [Lys (HCl) 15% N, L-lysine monohydrochloride]	5.3cde	6.3abc	7.0ab	0.0c	0.4cd	0	0	0	0.0c	1.1bcd	0	0	0	0.4bc	1.1bcd	0	0	0	1.0b	1.0	Injury Rating - Greens Bentgrass [3, 24]: 2.3ab; Injury Rating - Greens Bentgrass [3, 25]: 1.0b; Injury Rating - Greens Bentgrass [3, 26]: 1.0; Injury Rating - Greens Bentgrass [3, 27]: 2.7ab; Injury Rating - Greens Bentgrass [3, 28]: 2.0a; Injury Rating - Greens Bentgrass [3, 29]: 1.3; Injury Rating - Greens Bentgrass [3, 30]: 2.3ab
